Results: ChEMBL document CHEMBL1145206, “Design, synthesis and structure-activity relationships of novel taxane-based multidrug resistance reversal agents” (2005)

test system: MDA-MB-435; assay: MDR-reversal activity evaluated against the resistant human breast tumor cell line MDA-435/LCC6-MDR; type: functional; design: concentration or dose not given beside the values

Row | SMILES | Reduction [%]
1 | CC(=O)O[C@H]1C(=O)[C@]2(C)[C@@H](OC(=O)Cn3ccc4ccccc43)C[C@H]3OC[C@@]3(OC(C)=O)[C@H]2[C@H](OC(=O)c2ccccc2)[C@]2(O)C[C@H](OC(C)=O)C(C)=C1C2(C)C | 83
2 | CC(=O)O[C@H]1C(=O)[C@]2(C)[C@@H](OC(=O)/C=C/c3ccc(Oc4ccccc4)cc3)C[C@H]3OC[C@@]3(OC(C)=O)[C@H]2[C@H](OC(=O)c2ccccc2)[C@]2(O)C[C@H](OC(C)=O)C(C)=C1C2(C)C | 90
3 | CC(=O)O[C@H]1C(=O)[C@]2(C)[C@@H](OC(=O)/C=C/c3ccc(C(=O)c4ccc(F)cc4)cc3)C[C@H]3OC[C@@]3(OC(C)=O)[C@H]2[C@H](OC(=O)c2ccccc2)[C@]2(O)C[C@H](OC(C)=O)C(C)=C1C2(C)C | 92
4 | CC(=O)O[C@H]1C(=O)[C@]2(C)[C@@H](OC(=O)/C=C/c3ccc(Sc4ccccc4)cc3)C[C@H]3OC[C@@]3(OC(C)=O)[C@H]2[C@H](OC(=O)c2ccccc2)[C@]23OC(=O)O[C@H]2[C@H](OC(C)=O)C(C)=C1C3(C)C | 63
5 | CC(=O)O[C@H]1C(=O)[C@]2(C)[C@@H](OC(=O)Cc3ccc(C(=O)c4ccccc4)cc3)C[C@H]3OC[C@@]3(OC(C)=O)[C@H]2[C@H](OC(=O)c2ccccc2)[C@]2(O)C[C@H](OC(C)=O)C(C)=C1C2(C)C | 41
6 | CC(=O)O[C@H]1C(=O)[C@]2(C)[C@@H](OC(=O)CCc3ccc(C(O)c4ccccc4)cc3)C[C@H]3OC[C@@]3(OC(C)=O)[C@H]2[C@H](OC(=O)c2ccccc2)[C@]2(O)C[C@H](OC(C)=O)C(C)=C1C2(C)C (stereo partly drawn) | 48
7 | CC(=O)O[C@H]1C(=O)[C@]2(C)[C@@H](OC(=O)CC3c4ccccc4-c4ccccc43)C[C@H]3OC[C@@]3(OC(C)=O)[C@H]2[C@H](OC(=O)c2ccccc2)[C@]2(O)C[C@H](OC(C)=O)C(C)=C1C2(C)C | 67
8 | CC(=O)O[C@H]1C(=O)[C@]2(C)[C@@H](OC(=O)CCc3ccc4c(c3)C(=O)c3ccccc3C4=O)C[C@H]3OC[C@@]3(OC(C)=O)[C@H]2[C@H](OC(=O)c2ccccc2)[C@]2(O)C[C@H](OC(C)=O)C(C)=C1C2(C)C | 29
9 | CC(=O)O[C@H]1C(=O)[C@]2(C)[C@@H](OC(=O)/C=C/c3ccc(O)cc3)C[C@H]3OC[C@@]3(OC(C)=O)[C@H]2[C@H](OC(=O)c2ccccc2)[C@]2(O)C[C@H](OC(C)=O)C(C)=C1C2(C)C | 34
10 | CC(=O)O[C@H]1C(=O)[C@]2(C)[C@@H](OC(=O)Cc3ccc(C(=O)c4ccccc4)cc3)C[C@H]3OC[C@@]3(OC(C)=O)[C@H]2[C@H](OC(=O)c2ccccc2)[C@]23OC(=O)O[C@H]2[C@H](OC(C)=O)C(C)=C1C3(C)C | 44
11 | CC(=O)O[C@H]1C(=O)[C@]2(C)[C@@H](OC(=O)CCCCc3ccc(C(=O)c4ccccc4)cc3)C[C@H]3OC[C@@]3(OC(C)=O)[C@H]2[C@H](OC(=O)c2ccccc2)[C@]23OC(=O)O[C@H]2[C@H](OC(C)=O)C(C)=C1C3(C)C | 0
12 | C=C(c1ccccc1)c1cccc(/C=C/C(=O)O[C@H]2C[C@H]3OC[C@@]3(OC(C)=O)[C@H]3[C@H](OCc4ccccc4)[C@]4(O)C[C@H](OC(C)=O)C(C)=C([C@@H](OC(C)=O)C(=O)[C@]23C)C4(C)C)c1 | 52
13 | CC(=O)O[C@H]1C(=O)[C@]2(C)[C@@H](OC(=O)/C=C/c3ccc4ccccc4c3)C[C@H]3OC[C@@]3(OC(C)=O)[C@H]2[C@H](OC(=O)c2ccccc2)[C@]23OC(=O)O[C@H]2[C@H](OC(C)=O)C(C)=C1C3(C)C | 60
14 | CC(=O)O[C@H]1C(=O)[C@]2(C)[C@@H](OC(=O)COc3ccc4ccccc4c3)C[C@H]3OC[C@@]3(OC(C)=O)[C@H]2[C@H](OC(=O)c2ccccc2)[C@]2(O)C[C@H](OC(C)=O)C(C)=C1C2(C)C | 86
15 | CC(=O)O[C@H]1C(=O)[C@]2(C)[C@@H](OC(=O)Cc3ccc(-c4ccccc4)cc3)C[C@H]3OC[C@@]3(OC(C)=O)[C@H]2[C@H](OC(=O)c2ccccc2)[C@]2(O)C[C@H](OC(C)=O)C(C)=C1C2(C)C | 57
16 | CC(=O)O[C@H]1C(=O)[C@]2(C)[C@@H](OC(=O)/C=C/c3ccc(Sc4ccccc4)cc3)C[C@H]3OC[C@@]3(OC(C)=O)[C@H]2[C@H](OC(=O)c2ccccc2)[C@]2(O)C[C@H](OC(C)=O)C(C)=C1C2(C)C | 64
17 | CC(=O)O[C@H]1C(=O)[C@]2(C)[C@@H](OC(=O)/C=C/c3cccc(C(=O)c4ccc(C)cc4)c3)C[C@H]3OC[C@@]3(OC(C)=O)[C@H]2[C@H](OCc2ccccc2)[C@]2(O)C[C@H](OC(C)=O)C(C)=C1C2(C)C | 91
18 | CC(=O)O[C@H]1C(=O)[C@]2(C)[C@@H](OC(=O)/C=C/c3ccc(Oc4ccccc4)cc3)C[C@H]3OC[C@@]3(OC(C)=O)[C@H]2[C@H](OC(=O)c2ccccc2)[C@]23OC(=O)O[C@H]2[C@H](OC(C)=O)C(C)=C1C3(C)C | 90
19 | CC(=O)O[C@H]1C(=O)[C@]2(C)[C@@H](OC(=O)c3ccc(C(=O)c4ccccc4)cc3)C[C@H]3OC[C@@]3(OC(C)=O)[C@H]2[C@H](OC(=O)c2ccccc2)[C@]23OC(=O)O[C@H]2[C@H](OC(C)=O)C(C)=C1C3(C)C | 92
20 | CC(=O)O[C@H]1C(=O)[C@]2(C)[C@@H](OC(=O)c3ccnc4ccccc34)C[C@H]3OC[C@@]3(OC(C)=O)[C@H]2[C@H](OC(=O)c2ccccc2)[C@]2(O)C[C@H](OC(C)=O)C(C)=C1C2(C)C | 36
21 | CC(=O)O[C@H]1C(=O)[C@]2(C)[C@@H](OC(=O)CCc3ccc(Cc4ccccc4)cc3)C[C@H]3OC[C@@]3(OC(C)=O)[C@H]2[C@H](OC(=O)c2ccccc2)[C@]2(O)C[C@H](OC(C)=O)C(C)=C1C2(C)C | 16
22 | CC(=O)O[C@H]1C(=O)[C@]2(C)[C@@H](OC(=O)CCc3c(F)c(F)c(F)c(F)c3F)C[C@H]3OC[C@@]3(OC(C)=O)[C@H]2[C@H](OC(=O)c2ccccc2)[C@]2(O)C[C@H](OC(C)=O)C(C)=C1C2(C)C | 59
23 | CC(=O)O[C@H]1C(=O)[C@]2(C)[C@@H](OC(=O)c3ccc(C(=O)c4ccccc4)cc3)C[C@H]3OC[C@@]3(OC(C)=O)[C@H]2[C@H](OC(=O)c2ccccc2)[C@]2(O)C[C@H](OC(C)=O)C(C)=C1C2(C)C | 88
24 | CC(=O)O[C@H]1C(=O)[C@]2(C)[C@@H](OC(=O)COc3cccc4ccccc34)C[C@H]3OC[C@@]3(OC(C)=O)[C@H]2[C@H](OC(=O)c2ccccc2)[C@]2(O)C[C@H](OC(C)=O)C(C)=C1C2(C)C | 60
25 | CC(=O)O[C@H]1C(=O)[C@]2(C)[C@@H](OC(=O)/C=C/c3ccc(C(=O)c4cc(C(F)(F)F)cc(C(F)(F)F)c4)cc3)C[C@H]3OC[C@@]3(OC(C)=O)[C@H]2[C@H](OC(=O)c2ccccc2)[C@]2(O)C[C@H](OC(C)=O)C(C)=C1C2(C)C | 36
26 | CC(=O)O[C@H]1C(=O)[C@]2(C)[C@@H](OC(=O)/C=C/c3ccc4c(c3)C(=O)c3ccccc3-4)C[C@H]3OC[C@@]3(OC(C)=O)[C@H]2[C@H](OC(=O)c2ccccc2)[C@]2(O)C[C@H](OC(C)=O)C(C)=C1C2(C)C | 91
27 | CC(=O)O[C@H]1C(=O)[C@]2(C)[C@@H](OC(=O)c3cnc4ccccc4c3)C[C@H]3OC[C@@]3(OC(C)=O)[C@H]2[C@H](OC(=O)c2ccccc2)[C@]2(O)C[C@H](OC(C)=O)C(C)=C1C2(C)C | 41
28 | CC(=O)O[C@H]1C(=O)[C@]2(C)[C@@H](OC(=O)/C=C/c3ccc(C(=O)c4ccccc4)cc3)C[C@H]3OC[C@@]3(OC(C)=O)[C@H]2[C@H](OC(=O)c2ccccc2)[C@]23OC(=O)O[C@H]2[C@H](OC(C)=O)C(C)=C1C3(C)C | 94
